Measured values: patent publication US20230150929A1, “SELECTIVE NON-CYCLIC NUCLEOTIDE ACTIVATORS FOR THE CAMP SENSOR EPAC1” (The Board of Regents of The University of Texas System, priority 2020, published 2023)

Experiments:
EPAC1-ΔDEP (aa. 149-881) = biological target: T1, EPAC1-ΔDEP (aa. 149-881) (Homo sapiens, UniProt O95398); assay: 8-NBD-cAMP competition binding assay, EPAC1-ΔDEP; conditions: eleven-point dose-response 1-100 µM; mean ± SEM
T1 construct: EPAC1-ΔDEP (149-881); GST (N); made in house; host or cells: Escherichia coli BL21 Star (DE3)
T1 sequence (O95398 149-881 isoform O95398-3): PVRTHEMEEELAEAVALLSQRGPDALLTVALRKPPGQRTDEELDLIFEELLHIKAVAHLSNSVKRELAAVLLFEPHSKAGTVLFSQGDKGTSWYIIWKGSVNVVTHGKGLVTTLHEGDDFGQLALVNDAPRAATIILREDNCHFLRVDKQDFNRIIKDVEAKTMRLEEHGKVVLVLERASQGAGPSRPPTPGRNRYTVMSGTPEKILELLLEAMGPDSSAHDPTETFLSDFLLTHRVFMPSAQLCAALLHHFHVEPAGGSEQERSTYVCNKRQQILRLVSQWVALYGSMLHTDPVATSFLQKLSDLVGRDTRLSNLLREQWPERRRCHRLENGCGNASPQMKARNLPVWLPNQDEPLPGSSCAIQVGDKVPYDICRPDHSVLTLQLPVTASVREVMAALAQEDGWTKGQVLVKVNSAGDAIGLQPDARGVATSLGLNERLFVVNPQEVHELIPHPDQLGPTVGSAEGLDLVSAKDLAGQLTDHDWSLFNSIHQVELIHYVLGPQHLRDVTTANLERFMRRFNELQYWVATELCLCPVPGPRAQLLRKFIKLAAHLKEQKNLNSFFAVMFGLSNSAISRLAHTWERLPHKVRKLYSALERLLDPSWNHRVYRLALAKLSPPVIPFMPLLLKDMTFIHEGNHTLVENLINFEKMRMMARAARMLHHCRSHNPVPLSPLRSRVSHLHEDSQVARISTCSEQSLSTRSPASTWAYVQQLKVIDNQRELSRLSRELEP
Text: Recombinant Protein Purification.
8-NBD-cAMP Competition Binding Assay.

EPAC1 = biological target: T2, EPAC1 (Homo sapiens, UniProt O95398); assay: EPAC1 immunoprecipitation with activation-selective antibody in HEK293T cells; format: cell-based; design: expressed in transfected cells; conditions: versus vehicle-treated control, FIG. 10
T2 sequence (O95398 1-923): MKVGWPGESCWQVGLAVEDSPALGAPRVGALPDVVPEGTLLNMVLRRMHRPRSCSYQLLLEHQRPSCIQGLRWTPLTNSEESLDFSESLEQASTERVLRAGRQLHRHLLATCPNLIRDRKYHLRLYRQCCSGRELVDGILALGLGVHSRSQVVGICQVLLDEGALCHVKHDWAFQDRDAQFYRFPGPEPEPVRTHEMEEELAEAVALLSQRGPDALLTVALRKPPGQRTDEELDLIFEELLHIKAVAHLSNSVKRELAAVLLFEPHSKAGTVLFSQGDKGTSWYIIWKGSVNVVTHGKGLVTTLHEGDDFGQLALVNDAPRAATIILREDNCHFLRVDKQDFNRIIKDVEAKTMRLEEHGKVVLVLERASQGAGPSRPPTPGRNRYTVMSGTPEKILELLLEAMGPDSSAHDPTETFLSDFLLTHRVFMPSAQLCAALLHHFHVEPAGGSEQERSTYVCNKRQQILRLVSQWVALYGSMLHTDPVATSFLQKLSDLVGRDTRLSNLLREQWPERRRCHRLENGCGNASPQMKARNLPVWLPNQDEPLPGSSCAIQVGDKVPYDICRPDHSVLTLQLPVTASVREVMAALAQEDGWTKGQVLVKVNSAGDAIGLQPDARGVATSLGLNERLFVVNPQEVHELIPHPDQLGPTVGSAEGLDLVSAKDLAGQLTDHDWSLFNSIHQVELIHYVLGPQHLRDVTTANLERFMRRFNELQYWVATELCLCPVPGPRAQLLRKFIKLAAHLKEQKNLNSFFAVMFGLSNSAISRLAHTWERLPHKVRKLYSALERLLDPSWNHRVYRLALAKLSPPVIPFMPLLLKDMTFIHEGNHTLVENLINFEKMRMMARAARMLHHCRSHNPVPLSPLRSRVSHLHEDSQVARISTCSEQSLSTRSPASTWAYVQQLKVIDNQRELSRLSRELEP
Protocol: FIG. 10. Ability of selected compounds to interact with EPAC1 in cells. HEK293T cells stably transfected with EPAC1 were treated with hit compounds from the screen. EPAC1 was immunoprecipitated from cell lysates using an activation-selective antibody, visualized by western blotting and its levels were quantified densitometrically. Cyclic nucleotide EPAC1 agonist 2 was used as positive control. […] Data from at least three independent experiments are presented in the bar graph as mean ± SEM with significant increases in immunoprecipitated EPAC1 levels in comparison to vehicle-treated control indicated; ^∗∗ p < 0.01, ^∗∗∗ p < 0.001.
SDS-PAGE and Western Blotting. Samples were prepared by mixing equal volumes of cell lysate and 2x SDS sample loading buffer and denaturing for 5 min at 95° C., unless indicated otherwise. Protein samples were separated by SDS-PAGE on 10% (v/v) polyacrylamide gels, for EPAC1 and VASP, or on 12.5% (v/v), for Rap1, and then transferred to nitrocellulose membranes. Membranes were then blocked for 1 h at room temperature in 5% (w/v) non-fat dry milk or 5% (w/v) BSA in Tris-buffered saline containing 0.1% (v/v) Tween 20, followed by an overnight incubation with primary antibody diluted in blocking buffer at 4° C. Subsequently, the membranes were incubated with appropriate horseradish peroxidase-conjugated secondary antibodies for 1 h at room temperature. For signal detection the SuperSignal West Pico PLUS Chemiluminescent Substrate (Thermo Scientific) was used. Images were acquired using the Fusion FX7 camera platform (Vilber). Densitometry was performed with ImageJ.

Structure (SMILES)	IC50 (EPAC1-ΔDEP (aa. 149-881)) [nM]	EPAC1 immunoprecipitation with activation-selective antibody (EPAC1)
COc1ccc2ccc(OCC(=O)NS(=O)(=O)c3ccc4ccccc4c3)cc2c1 [Compound 25q, 2-((7-Methoxynaphthalen-2-yl)oxy)-N-(naphthalen-2-ylsulfonyl)acetamide]	500	significant increases in EPAC1 immunoprecipitation
COc1ccc2ccc(OCC(=O)NS(=O)(=O)c3ccc(N)cc3OC)cc2c1 [Compound 25n, N-((4-Amino-2-methoxyphenyl)sulfonyl)-2-((7-methoxynaphthalen-2-yl)oxy)acetamide]	600	significant increases in EPAC1 immunoprecipitation
COc1ccc(S(=O)(=O)NC(=O)COc2ccc3ccccc3c2)c(OC)c1 [Compound 25g, N-((2,4-Dimethoxyphenyl)sulfonyl)-2-(naphthalen-2-yloxy)acetamide]	4900	significant increases in EPAC1 immunoprecipitation
